Source: US11970440B1, “8-(3-chlorobenzylideneamino)naphthalene-1,3-disulfonic acid as an antioxidant compound” (KING FAISAL UNIVERSITY, priority 2023, dated 2024)

Test: DPPH (2,2-diphenyl-1-picrylhydrazyl) radical scavenging antioxidant test in vitro
Assay type: biochemical
Conditions: 517 nm; for Inhibition (radical scavenging inhibition): 0.2 mL DPPH (0.75 mM), compound 3 μM in ethanol, 30 min incubation in the dark
Description: The antioxidant properties of the 8-(3-chlorobenzylideneamino)naphthalene-1,3-disulfonic acid were studied by adding 0.2 mL DPPH (0.75 mM)) to compound 8-(3-chlorobenzylideneamino)naphthalene-1,3-disulfonic acid (III) (3 μM) in ethanol. After 30 min of incubation in the dark, the absorbance was read against a blank at 517 nm. Ascorbic acid (vitamin C) was used as standard antioxidants (positive control). A blank sample was prepared by 0.2 ml of DPPH in 3 ml ethanol. A negative control sample was run using ethanol instead of the sample. The radical scavenging inhibition was calculated using the following equation: […]
The antioxidant activity for the synthesized compound is listed in Table 1, using Vitamin C as a reference.

Structure (SMILES)	Inhibition (radical scavenging inhibition)	antioxidant potential in DPPH test, in words (DPPH in vitro test, vitamin C as positive control)
O=S(=O)(O)c1cc(S(=O)(=O)O)c2c(/N=C/c3cccc(Cl)c3)cccc2c1 [Product III, 8-(3-chlorobenzylideneamino)naphthalene-1,3-disulfonic acid]	50%	high potential as an antioxidant compared to vitamin C
O=C1O[C@H]([C@@H](O)CO)C(O)=C1O [vit c, Ascorbic acid, reference compound]	74%	–
